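Growth conditions: 96-well plates. Treatment: test compound, 48 hours, 5 concentrations. Analysis: linear interpolation between bracketing concentrations; unreached endpoints set to highest concentration. TGI marks complete inhibition of growth.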
Tests used:
Assay in all cases: NCI anticancer screen, dose series, 48 h
SNB-19 CNS = system: SNB-19 CNS
A549 NSCLC = system: A549 NSCLC
HCT-15 colon = system: HCT-15 colon
LOX IMVI melanoma = system: LOX IMVI melanoma
NCI-H23 lung = system: NCI-H23 lung
SK-MEL-5 melanoma = system: SK-MEL-5 melanoma
ACHN renal = system: ACHN renal
OVCAR-8 ovarian = system: OVCAR-8 ovarian
CAKI-1 renal = system: CAKI-1 renal
KM12 colon = system: KM12 colon
HT29 colon = system: HT29 colon
IGROV1 ovarian = system: IGROV1 ovarian
M14 melanoma = system: M14 melanoma
SN12C renal = system: SN12C renal
SK-MEL-28 melanoma = system: SK-MEL-28 melanoma
NCI-H226 lung = system: NCI-H226 lung
HCC-2998 colon = system: HCC-2998 colon
MDA-MB-231 breast = system: MDA-MB-231 breast
MCF7 breast = system: MCF7 breast

| SMILES | TGI (SNB-19 CNS) [µM] | TGI (A549 NSCLC) [µM] | TGI (HCT-15 colon) [µM] | TGI (LOX IMVI melanoma) [µM] | TGI (NCI-H23 lung) [µM] | TGI (SK-MEL-5 melanoma) [µM] | TGI (ACHN renal) [µM] | TGI (OVCAR-8 ovarian) [µM] | TGI (CAKI-1 renal) [µM] | TGI (KM12 colon) [µM] | TGI (HT29 colon) [µM] | TGI (IGROV1 ovarian) [µM] | TGI (M14 melanoma) [µM] | TGI (SN12C renal) [µM] | TGI (SK-MEL-28 melanoma) [µM] | TGI (NCI-H226 lung) [µM] | TGI (HCC-2998 colon) [µM] | TGI (MDA-MB-231 breast) [µM] | TGI (MCF7 breast) [µM] |
| --- | --- | --- | --- | --- | --- | --- | --- | --- | --- | --- | --- | --- | --- | --- | --- | --- | --- | --- | --- |
| CN(C(=O)C12C3C4C1C1C4(C(=O)C45C6C7C4C4C5C6C74C)C3C12C)C(C)(C)C (configuration not stated) | > 100 | > 100 | > 100 | > 100 | > 100 | 81.7 | > 100 | > 100 | > 100 | > 100 | 35.1 | > 100 | > 100 | > 100 | > 100 | > 100 | > 100 |  |  |
| N#Cc1c(NN)nc(NN)c(C#N)c1-c1ccccc1 | > 100 | > 100 | > 100 | > 100 | > 100 | > 100 | > 100 | > 100 | > 100 | > 100 | > 100 | > 100 | > 100 | > 100 | > 100 | > 100 | > 100 |  |  |
| N#Cc1c(Cl)cccc1Oc1ccc(S(=O)(=O)/N=C(\NN)Nc2ccc(Cl)cc2)cc1 | > 100 | > 100 | > 100 | 31.4 | 65.6 | 31.3 | > 100 | > 100 | > 100 | 42.7 | 96.2 | 43.4 | 52.1 | 64 | > 100 | 60.9 |  | 67.2 | > 100 |
| CS/C1=C(\c2ccc(C)cc2)N(c2ccccc2)C(=O)C(=O)N(c2ccccc2)/C(c2ccc(C)cc2)=C(/SC)SS1 | > 100 |  | > 100 | > 100 | > 100 |  | > 100 | > 100 | > 100 |  | > 100 | > 100 | > 100 | > 100 | > 100 |  | > 100 | > 100 | > 100 |
| CC(C)(C)c1cc(C(C)(C)C)c(SS(=O)(=O)O)c(O)c1O | > 100 | > 100 | > 100 | > 100 | > 100 | > 100 | > 100 | > 100 | > 100 | > 100 | > 100 | > 100 | > 100 | > 100 | > 100 | > 100 |  | > 100 | > 100 |
| COC(=O)N1CCc2c(nc(N(C)CCO)[nH]c2=O)C1 | > 100 | > 100 | > 100 | > 100 | > 100 | > 100 | > 100 | > 100 | > 100 | > 100 | > 100 | > 100 | > 100 | > 100 | > 100 | > 100 | > 100 |  |  |
| CCCCCC/C=C1\CCC(CN2CCCC2)C1=O (configuration not stated) | > 52.9 | 37 | 22.8 | 22.4 | 33.8 | 32.8 | 32.3 | 39.2 | > 53.5 | 13.3 | 34.2 | 39.6 | 33.6 | 27 | 33.8 | 34.3 | 31.6 |  |  |
| O=C1CCC(=O)N1Cc1ccccc1N=[N+]([O-])c1ccccc1CN1C(=O)CCC1=O | > 100 | > 100 | > 100 | > 100 | > 100 | > 100 | > 100 | > 100 |  | > 100 | > 100 | > 100 | > 100 | > 100 | > 100 |  | > 100 |  |  |
| FC(F)(Sc1ccccn1)c1nc2ccccc2o1 |  | > 100 | > 100 |  | > 100 | > 100 | > 100 | > 100 | > 100 | > 100 | > 100 | > 100 | > 100 | > 100 | > 100 | > 100 | > 100 | > 100 | > 100 |
| O=c1cc2ccccc2nn1Cc1cccc(Cl)c1 | > 100 | > 100 | > 100 | > 100 | > 100 | > 100 | > 100 | > 100 | > 100 | > 100 | > 100 | > 100 | > 100 | > 100 | > 100 | > 100 | > 100 |  |  |
| Clc1cc(Cc2cc(Cl)c(Cl)c3c2OCOC3)c2c(c1Cl)COCO2 | > 100 | > 100 | > 100 | > 100 | > 100 | > 100 | > 100 | > 100 | 49.7 | > 100 | > 100 | > 100 | > 100 | > 100 | > 100 | 72.9 | > 100 |  |  |
| COc1cccc(NC(=O)/C(CC(=O)CC(c2ccccc2)c2c(O)c3ccccc3oc2=O)=N\NC(C)(C)C)c1OC (configuration not stated) | > 100 | > 100 | > 100 | > 100 |  | > 100 | > 100 | > 100 | > 100 | > 100 |  | > 100 | > 100 |  | > 100 |  | > 100 |  |  |
| O=C(COc1ccc(OCC(=O)N2C(=O)CSC2=Nc2ccccc2)cc1)N1C(=O)CSC1=Nc1ccccc1 | > 100 | > 100 | > 100 |  | > 100 | 33.3 | > 100 |  | 47.7 | 44.3 | 41.2 | 82.8 | > 100 | > 100 | > 100 | > 100 | 44.2 | 90.1 | > 100 |
| CC(=O)OC1COC(Nc2ccc(C(C)=O)cc2)C(OC(C)=O)C1OC(C)=O (configuration not stated) | > 100 | > 100 | > 100 | > 100 | > 100 | > 100 | > 100 | > 100 | > 100 | > 100 | > 100 | > 100 | > 100 | > 100 | > 100 | > 100 | > 100 |  |  |
| C=C(C)C1Cc2c(cc(O)c3c(=O)c4c(oc23)C(O)Oc2cc(OC)c(OC)cc2-4)O1 (configuration not stated) | > 10 | > 10 | > 10 |  | > 10 |  | > 10 | > 10 | > 10 | > 10 | > 10 | > 10 | > 10 | > 10 | > 10 | > 10 | > 10 | > 10 | > 10 |
| CC1(CO)OC(n2cc(C(=O)NC(=O)OCc3ccccc3)c(=O)[nH]c2=O)CC1O (configuration not stated) | > 100 | > 100 | > 100 | > 100 | > 100 | > 100 | > 100 | > 100 | > 100 | > 100 | > 100 | > 100 | > 100 | > 100 | > 100 | > 100 |  |  |  |
| N#C/C(=C/c1ccc[nH]1)P(=O)(O)O | > 100 | > 100 | > 100 | > 100 | > 100 | > 100 | > 100 | > 100 | > 100 | > 100 | > 100 |  | > 100 | > 100 | > 100 | > 100 | > 100 |  |  |
| Nc1ccc2nc(Nc3ccc(F)cc3)cnc2c1 | > 100 | > 100 | > 100 | > 100 |  | > 100 | > 100 | > 100 | > 100 | > 100 | > 100 |  | > 100 | > 100 | > 100 | > 100 | > 100 |  |  |
| CC(=O)OC[C@]1(O)CC[C@@]23CC1C[C@@H]2CCC1C(C)(C)CCC[C@@]13C (some centres not stated) | 27.6 | 29.6 | 30 | 23.3 | 26.4 | 28.2 | 29.3 | 32 | 32.4 | 26.1 | 25.7 | 34.5 | 26.9 | 24.7 | 28.1 | 32.7 | 33 |  |  |
| Cc1cc2nc(CCC(=O)O)c(=O)[nH]c2cc1C | > 100 | > 100 | > 100 | > 100 | > 100 | > 100 | > 100 | > 100 | > 100 | > 100 | > 100 | > 100 | > 100 | > 100 | > 100 | > 100 | > 100 |  |  |
| CC(C)c1ccc(C2C3=C(N=C4SCC(=O)N42)C(=O)c2ccccc23)cc1 (configuration not stated) | > 100 | > 100 | > 100 |  | > 100 | > 100 | > 100 | > 100 | > 100 | > 100 | > 100 | > 100 | > 100 | > 100 | > 100 | > 100 | > 100 |  |  |
| O=S1CCS(=O)CCS(=O)CC1 (configuration not stated) | > 100 | > 100 | > 100 | > 100 | > 100 | > 100 |  | > 100 |  | > 100 | > 100 | > 100 | > 100 | > 100 | > 100 |  | > 100 | > 100 | > 100 |
